These results are taken from US8598365B2, “Herbicides” (Syngenta Limited, priority 2007, dated 2013).

Each structure is given as a SMILES string.

Common to all, as to type: in vivo
Test [1] concerns Amaranthus retoflexus (AMARE). The experiment in a line: Example B post-emergence herbicidal activity. The settings on record: Amaranthus retroflexus, 312 h, rate 250 g/ha, evaluated after 13 days, read-out: Post-emergence activity AMARE (100=total damage to plant; 0=no damage to plant). An outline of the steps:
(§1)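 Visual injury score (0 none to 100 total) taken 13 days after spraying. Treatment was applied pre-emergence at day 1 or post-emergence at day 8, using acetone/water 50:50 containing 0.5% Tween 20.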

Test [2] relates to Alopecurus myosuroides (ALOMY). Description: Example B post-emergence herbicidal activity. The settings on record: 312 h, rate 250 g/ha, evaluated after 13 days, read-out: Post-emergence activity ALOMY (100=total damage to plant; 0=no damage to plant). Put shortly: as §1
Test [3] deals with Avena fatua (AVEFA). Description: Example B post-emergence herbicidal activity. The following applies: 312 h, rate 250 g/ha, evaluated after 13 days, read-out: Post-emergence activity AVEFA (100=total damage to plant; 0=no damage to plant). Put shortly: as §1
Test [4] deals with Echinochloa crus-galli (ECHCG). The experiment in a line: Example B post-emergence herbicidal activity. The following applies: 312 h, rate 250 g/ha, evaluated after 13 days, read-out: Post-emergence activity ECHCG (100=total damage to plant; 0=no damage to plant). An outline of the steps:
as §1

The test system of test [5] is Setaria faberi (SETFA). The experiment in a line: Example B post-emergence herbicidal activity. The following applies: 312 h, rate 250 g/ha, evaluated after 13 days, read-out: Post-emergence activity SETFA (100=total damage to plant; 0=no damage to plant). Put shortly: as §1
Test [6] has as its system Amaranthus retoflexus (AMARE). The experiment in a line: Example B pre-emergence herbicidal activity. The settings on record: Amaranthus retroflexus, 312 h, rate 250 g/ha, evaluated after 13 days, read-out: Pre-Emergence Activity AMARE (100=total damage to plant; 0=no damage to plant). An outline of the steps: as §1
Test [7] deals with Alopecurus myosuroides (ALOMY). Description: Example B pre-emergence herbicidal activity. The following applies: 312 h, rate 250 g/ha, evaluated after 13 days, read-out: Pre-Emergence Activity ALOMY (100=total damage to plant; 0=no damage to plant). Put shortly:
as §1

Test [8] concerns Avena fatua (AVEFA). Description: Example B pre-emergence herbicidal activity. The settings on record: 312 h, rate 250 g/ha, evaluated after 13 days, read-out: Pre-Emergence Activity AVEFA (100=total damage to plant; 0=no damage to plant). Put shortly:
as §1

The test system of test [9] is Echinochloa crus-galli (ECHCG). The experiment in a line: Example B pre-emergence herbicidal activity. The following applies: 312 h, rate 250 g/ha, evaluated after 13 days, read-out: Pre-Emergence Activity ECHCG (100=total damage to plant; 0=no damage to plant). An outline of the steps: as §1
Test [10] deals with Setaria faberi (SETFA). Description: Example B pre-emergence herbicidal activity. The following applies: 312 h, rate 250 g/ha, evaluated after 13 days, read-out: Pre-Emergence Activity SETFA (100=total damage to plant; 0=no damage to plant). An outline of the steps:
as §1

Regarding `CCc1sc(-c2ccc3ccccc3c2)nc1C1C(=O)[C@@H]2CC[C@@H](C2)C1=O` (stereo partly shown) [Compound T99], the pest or weed control at 250 g/ha in [1] turned out to be 0%; in test [2], 100%; in the test on Avena fatua (AVEFA) [3] it was 100%; in [4] it was 100%; in the test on Setaria faberi (SETFA) [5], 100%; in [6] it was 20%. Also, the pest or weed control at 250 g/ha in [7] was found to be 50%; in the test on Avena fatua (AVEFA) [8] it was 30%; in test [9], 60%; in the test on Setaria faberi (SETFA) [10], 60%.
With `CCc1sc(-c2ccc(Cl)cc2Br)nc1C1C(=O)[C@@H]2CC[C@@H](C2)C1=O` (stereo partly shown) [Compound T51], the pest or weed control at 250 g/ha in test [1] was 0%; in test [2], 100%; in the test with Avena fatua (AVEFA) [3], 100%; in test [4], 100%; in the test on Setaria faberi (SETFA) [5] it was 100%; in [6], 0%. For the same molecule, the pest or weed control at 250 g/ha in [7] worked out at 80%; in the test on Avena fatua (AVEFA) [8] it was 20%; in [9], 100%; with Setaria faberi (SETFA) [10], 100%.
On to `Cc1sc(-c2ccc(Cl)cc2F)nc1C1C(=O)[C@@H]2CC[C@@H](C2)C1=O` (stereo partly shown) [Compound T13], for which the pest or weed control at 250 g/ha amounted to 0% in test [1]; 100% in test [2]; 90% in the test with Avena fatua (AVEFA) [3]; 100% in test [4]; 100% in the test on Setaria faberi (SETFA) [5]; 0% in test [6]. Further, the pest or weed control at 250 g/ha was determined as 90% in test [7], 40% in the test on Avena fatua (AVEFA) [8], 100% in test [9] and 100% in the test on Setaria faberi (SETFA) [10].
As for `Cc1sc(-c2ccc(OC(F)(F)F)cc2)nc1C1C(=O)[C@@H]2CC[C@@H](C2)C1=O` (stereo partly shown) [Compound T5, 3-[5-methyl-2-(4-trifluoromethoxyphenyl)thiazol-4-yl]bicyclo[3.2.1]octane-2,4-dione], the pest or weed control at 250 g/ha in test [1] worked out at 0%; in test [2], 70%; in the test with Avena fatua (AVEFA) [3] it was 0%; in test [4], 100%; in the test with Setaria faberi (SETFA) [5], 100%; in [6] it was 0%. Also, the pest or weed control at 250 g/ha in [7] is 50%; with Avena fatua (AVEFA) [8], 0%; in [9] it was 80%; in the test on Setaria faberi (SETFA) [10], 90%.
On to `CCc1sc(-c2ccccc2Cl)nc1C1C(=O)[C@@H]2CC[C@@H](C2)C1=O` (stereo partly shown) [Compound T106], for which the pest or weed control at 250 g/ha in test [1] stood at 0%; in [2] it was 10%; in the test with Avena fatua (AVEFA) [3], 0%; in [4] it was 30%; in the test on Setaria faberi (SETFA) [5] it was 70%; in test [6] it was 0%. Besides, the pest or weed control at 250 g/ha in [7] is 0%; in the test on Avena fatua (AVEFA) [8], 0%; in test [9], 10%; in the test with Setaria faberi (SETFA) [10] it was 20%.
For `CCc1sc(-c2ccc(C(F)(F)F)cc2)nc1C1C(=O)[C@@H]2CC[C@@H](C2)C1=O` (stereo partly shown) [Compound T96], the pest or weed control at 250 g/ha was 30% in [1]; 100% in test [2]; 100% in the test with Avena fatua (AVEFA) [3]; 100% in test [4]; 100% in the test on Setaria faberi (SETFA) [5]; 0% in test [6]. Moreover, the pest or weed control at 250 g/ha in test [7] amounted to 80%; in the test with Avena fatua (AVEFA) [8], 100%; in [9] it was 100%; with Setaria faberi (SETFA) [10], 100%.
Take `CC(=O)OC1=C(c2nc(-c3ccc(Cl)cc3)ncc2C)C(=O)[C@H]2CC[C@@H]1C2` [Compound P18]: the pest or weed control at 250 g/ha amounted to 40% in test [1]; 10% in [2]; 0% in the test on Avena fatua (AVEFA) [3]; 80% in test [4]; 90% with Setaria faberi (SETFA) [5]; 0% in test [6]. For the same molecule, the pest or weed control at 250 g/ha came out at 20% in [7], 0% in the test on Avena fatua (AVEFA) [8], 70% in [9] and 60% with Setaria faberi (SETFA) [10].
For the molecule `Cc1sc(-c2ccc(Cl)c(Cl)c2)nc1C1C(=O)[C@@H]2CC[C@@H](C2)C1=O` (stereo partly shown) [Compound T9], the pest or weed control at 250 g/ha is 0% in [1]; 60% in [2]; 0% in the test on Avena fatua (AVEFA) [3]; 70% in test [4]; 100% with Setaria faberi (SETFA) [5]; 0% in test [6]. Also, the pest or weed control at 250 g/ha turned out to be 30% in test [7], 0% in the test with Avena fatua (AVEFA) [8], 50% in [9] and 50% with Setaria faberi (SETFA) [10].
For the molecule `CCc1sc(-c2ccc(Cl)c(F)c2)nc1C1C(=O)[C@@H]2CC[C@@H](C2)C1=O` (stereo partly shown) [Compound T27], the pest or weed control at 250 g/ha in [1] worked out at 0%; in test [2], 100%; with Avena fatua (AVEFA) [3] it was 100%; in test [4], 100%; with Setaria faberi (SETFA) [5] it was 100%; in [6], 0%. Moreover, the pest or weed control at 250 g/ha came to 90% in [7], 90% in the test on Avena fatua (AVEFA) [8], 100% in test [9] and 100% with Setaria faberi (SETFA) [10].
On to `CCc1sc(-c2ccc(OC)c(F)c2)nc1C1C(=O)[C@@H]2CC[C@@H](C2)C1=O` (stereo partly shown) [Compound T111], for which the pest or weed control at 250 g/ha stood at 0% in test [1]; 100% in test [2]; 100% in the test with Avena fatua (AVEFA) [3]; 100% in test [4]; 100% with Setaria faberi (SETFA) [5]; 0% in [6]. Moreover, the pest or weed control at 250 g/ha in test [7] was found to be 50%; with Avena fatua (AVEFA) [8], 90%; in [9], 100%; with Setaria faberi (SETFA) [10] it was 80%.
As to `Cc1sc(-c2ccc(Br)cn2)nc1C1=C(OC(=O)C(C)(C)C)[C@@H]2CC[C@@H](C2)C1=O` [Compound P8], the pest or weed control at 250 g/ha is 0% in test [1]; 70% in [2]; 80% with Avena fatua (AVEFA) [3]; 0% in test [4]; 100% in the test on Setaria faberi (SETFA) [5]; 0% in test [6]. In addition, the pest or weed control at 250 g/ha in test [7] is 20%; in the test on Avena fatua (AVEFA) [8], 0%; in test [9], 50%; with Setaria faberi (SETFA) [10], 100%.
Consider `Cc1sc(-c2ccc(Br)cn2)nc1C1=C(OC(=O)C2CC2)[C@@H]2CC[C@@H](C2)C1=O` [Compound P7], for which the pest or weed control at 250 g/ha in test [1] worked out at 0%; in test [2], 90%; in the test with Avena fatua (AVEFA) [3], 90%; in test [4] it was 100%; in the test on Setaria faberi (SETFA) [5], 100%; in test [6], 0%. Further, the pest or weed control at 250 g/ha in [7] was 30%; with Avena fatua (AVEFA) [8], 0%; in test [9], 20%; with Setaria faberi (SETFA) [10], 90%.
With `CCc1sc(-c2ccc(C)cc2)nc1C1=C(OC(C)=O)[C@H]2CC[C@H](C2)C1=O` [Compound P15], the pest or weed control at 250 g/ha came to 0% in [1]; 100% in [2]; 90% in the test with Avena fatua (AVEFA) [3]; 100% in [4]; 100% with Setaria faberi (SETFA) [5]; 0% in [6]. Moreover, the pest or weed control at 250 g/ha in [7] was 90%; in the test with Avena fatua (AVEFA) [8] it was 60%; in [9], 100%; with Setaria faberi (SETFA) [10], 90%.
